Laboratory results from patent publication US20050222146A1, “N-substituted-n-sulfonylaminocyclopropane compounds and pharmaceutical use thereof” (priority 2003, published 2005).

Key:
Assay type in all cases: biochemical
[1] = molecular target: T1, aggrecanase-1 (Homo sapiens, UniProt O75173); assay: Aggrecanase-1 inhibitory action, Particle Assay (GAG release from aggrecan-containing polyacrylamide particles); conditions: 37° C. for 15 hr, read-out: Experimental Example 1 IC50 AG1
T1 sequence (O75173 213-837): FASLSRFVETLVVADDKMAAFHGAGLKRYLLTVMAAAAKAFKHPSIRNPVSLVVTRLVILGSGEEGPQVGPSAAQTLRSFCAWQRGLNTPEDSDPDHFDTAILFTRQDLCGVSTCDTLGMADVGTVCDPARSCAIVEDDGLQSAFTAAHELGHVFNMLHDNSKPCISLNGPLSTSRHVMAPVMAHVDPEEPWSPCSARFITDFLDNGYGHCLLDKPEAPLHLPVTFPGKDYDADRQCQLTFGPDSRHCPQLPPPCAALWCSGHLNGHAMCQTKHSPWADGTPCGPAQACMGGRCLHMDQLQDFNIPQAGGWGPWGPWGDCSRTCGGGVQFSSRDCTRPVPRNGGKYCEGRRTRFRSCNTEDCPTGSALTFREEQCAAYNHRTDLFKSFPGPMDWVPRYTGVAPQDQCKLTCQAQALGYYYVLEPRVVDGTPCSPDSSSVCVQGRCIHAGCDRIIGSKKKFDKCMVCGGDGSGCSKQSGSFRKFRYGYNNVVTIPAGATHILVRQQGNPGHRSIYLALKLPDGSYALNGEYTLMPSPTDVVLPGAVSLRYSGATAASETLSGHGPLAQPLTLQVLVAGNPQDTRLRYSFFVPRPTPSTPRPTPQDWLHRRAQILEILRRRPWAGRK
Summary of the method: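 IC50 (μM) derived from % inhibition, referenced to enzyme-free and inhibitor-free wells, of GAG release read as 1,9-dimethylmethylene blue absorbance at 595 nm (chondroitin sulfate standard). Substrate: aggrecan-bearing polyacrylamide particles, exposed to enzyme plus compound in Tris-HCl for 15 hr at 37 °C.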

[2] = molecular target: T2, MMP-1 (Homo sapiens, UniProt P03956); assay: MMP-1 inhibitory action, Type I collagen Activity Measurement kit (FITC-labeled collagen type I); conditions: 37° C. for 3 hr, read-out: Experimental Example 2 IC50 MMP1
T2 sequence (P03956 100-469): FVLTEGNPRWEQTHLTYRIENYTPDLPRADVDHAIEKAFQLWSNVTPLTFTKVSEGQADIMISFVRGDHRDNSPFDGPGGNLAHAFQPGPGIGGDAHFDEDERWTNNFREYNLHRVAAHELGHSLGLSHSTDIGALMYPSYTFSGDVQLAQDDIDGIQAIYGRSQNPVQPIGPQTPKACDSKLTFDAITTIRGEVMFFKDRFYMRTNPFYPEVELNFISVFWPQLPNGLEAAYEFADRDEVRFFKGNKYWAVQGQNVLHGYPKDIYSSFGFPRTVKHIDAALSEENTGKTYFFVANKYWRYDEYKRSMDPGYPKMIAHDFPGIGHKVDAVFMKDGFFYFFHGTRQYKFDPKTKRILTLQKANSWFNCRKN

[3] = molecular target: T3, Recombinant Human MMP-13 (Homo sapiens, UniProt P45452); assay: MMP-13 inhibition, MMP-13 specific fluorescent substrate with quencher; conditions: synthetic substrate 7-MCA-Pro-CHA-Gly-NVal-His-Ala-DPA, 25° C. for 1 h; read-out: Experimental Example 3 IC50 MMP13
T3 construct: purchased R&D systems 511-MM
Procedure: Inhibitory activity of tested compounds on MMP-13 was measured using MMP-13 specific fluorescent substrate with quencher.
The enzyme and substrate were diluted with Tris-HCl buffer, and test compounds were diluted with dimethyl sulfoxide (DMSO).
Test compounds and the enzyme (Recombinant Human MMP-13: R&D systems, 511-MM) were added into 96-well plate. The reaction was initiated by adding synthetic substrate (7-MCA-Pro-CHA-Gly-NVal-His-Ala-DPA: enzyme systems products, Met-06) into the plate. After incubation at 25° C. for 1 h, the reaction was terminated by addition of reaction terminating solution containing acetic acid. Fluorescence intensity of each well was measured (Ex: 325 nm, Em: 405 nm) and the MMP-13 inhibitory activity of the compound in each well (%) was calculated based on the values of enzyme-free well and inhibitor-free well. The inhibitory activity of the compound was represented as IC50 (μM).

IC50 [1] [nM]	IC50 [2] [nM]	IC50 [3] [nM]	Compound
≥ 1000	≥ 10000	≥ 1000	CN1CCN(C(=O)CN([C@]2(C(=O)O)C[C@H]2c2ccccc2)S(=O)(=O)c2ccc(-c3ccc(Cl)cc3)s2)CC1 [Example 2-17, (1R,2S)-1-{[5-(4-Chloro-phenyl)-thiophene-2-sulfonyl]-[2-(4-methyl-piperazin-1-yl)-2-oxo-ethyl]-amino}-2-phenyl-cyclopropanecarboxylic acid]
≥ 1000	≥ 10000	< 1000	O=C(O)[C@@]1(N(CCCO)S(=O)(=O)c2ccc(-c3ccc(Cl)cc3)s2)C[C@H]1c1ccccc1 [Example 2-18, (1R,2S)-1-[[5-(4-Chloro-phenyl)-thiophene-2-sulfonyl]-(3-hydroxy-propyl)-amino]-2-phenyl-cyclopropanecarboxylic acid]
≥ 1000	≥ 10000	< 1000	O=C(OCCN([C@]1(C(=O)O)C[C@H]1c1ccccc1)S(=O)(=O)c1ccc(-c2ccc(Cl)cc2)s1)N1CCOCC1 [Example 2-19, Morpholine-4-carboxylic acid 2-{((1R,2S)-1-carboxy-2-phenyl-cyclopropyl)-[5-(4-chloro-phenyl)-thiophene-2-sulfonyl]-amino}-ethyl ester]
≥ 1000	≥ 10000	≥ 1000	O=C(OCCCN([C@]1(C(=O)O)C[C@H]1c1ccccc1)S(=O)(=O)c1ccc(-c2ccc(Cl)cc2)s1)N1CCOCC1 [Example 2-20, Morpholine-4-carboxylic acid 3-{((1R,2S)-1-carboxy-2-phenyl-cyclopropyl)-[5-(4-chloro-phenyl)-thiophene-2-sulfonyl]-amino}-propyl ester]
≥ 1000	≥ 10000	≥ 1000	CN1CCN(C(=O)OCCCN([C@]2(C(=O)O)C[C@H]2c2ccccc2)S(=O)(=O)c2ccc(-c3ccc(Cl)cc3)s2)CC1 [Example 2-21, 4-Methyl-piperazine-1-carboxylic acid 3-{((1R,2S)-1-carboxy-2-phenyl-cyclopropyl)-[5-(4-chloro-phenyl)-thiophene-2-sulfonyl]-amino}-propyl ester]
≥ 1000	≥ 10000	≥ 1000	O=C1CN(S(=O)(=O)c2ccc(-c3ccc(Cl)cc3)s2)C2(C(=O)O)CC2(c2ccccc2)CN1 (stereo not drawn) [Example 2-25, 1R*,7S*)-2-[5-(4-Chloro-phenyl)-thiophene-2-sulfonyl]-4-oxo-7-phenyl-2,5-diaza-bicyclo[5.1.0]octane-1-carboxylic acid]
≥ 1000	≥ 10000	≥ 1000	CN1CC2(c3ccccc3)CC2(C(=O)O)N(S(=O)(=O)c2ccc(-c3ccc(Cl)cc3)s2)CC1=O (stereo not drawn) [Example 2-27, (1R*,7R*)-2-[5-(4-Chloro-phenyl)-thiophene-2-sulfonyl]-5-methyl-4-oxo-7-phenyl-2-,5-diaza-bicyclo[5.1.0]octane-1-carboxylic acid]
